Measured values from patent US11219636B2, “Compositions and methods for treating cancer” (priority 2015, dated 2022).

Experiments:
p53 = p53 transcription activity by GFP reporter in HCT116 cells transfected with RGC-mazE-IRES-GFP plasmid; format: cell-based, human
Experimental: In order to test the ability of p53 to bind to its responsive element and stimulate transcription, HCT116 cells were transfected with RGC-mazE-IRES-GFP plasmid. Since p53 is degraded in un-activated cells, the present inventors used Quercetin, a ubiquitous bioactive plant flavonoid that is able to induce p53 phosphorylation, stabilization and total p53 protein accumulation. Another widely used p53 inducer is the antimetabolite agent 5-FU. P53 transcription activity was evaluated by measuring the expression of the downstream reporter gene, GFP.

p53 target genes = test: Transcription of p53 target genes, Western blot and semi-quantitative PCR; format: cell-based, human; settings: 50 μM, 24 hours, HCT116 p53 WT cells
Experimental: FIGS. 14A-C are Western blot analyses of p53 (FIG. 14A), p21 (FIG. 14B) and Tubulin (FIG. 14C) of HCT116 cells after treatment with 5FU. HCT116 cells were treated with 50 μM 5FU for 24 hours. Then, total cell lysate was prepared and subjected to Western blot analysis for p53 (FIG. 14A) and p21 (FIG. 14B) analysis. Tubulin (FIG. 14C) was used as a loading control and in the analyses of both proteins for normalization.
FIGS. 15A-B depict mRNA levels of various transcripts following treatment of HCT116 cells with 5FU. HCT116 cells were treated with 50 μM 5FU for 24 hours. Then, RNA was prepared and used as a template for cDNA and semi-quantitative PCR was performed for the following transcripts: p21, Bax, Noxa, Puma, MDM2, 14-3-3o, CD95, Btg2, GADD45, and Survivin. The graph represents the quantification of mRNA levels performed using the primers listed in Table 2 in the EXAMPLES section which follows.
Further validation of endogenous p53 activation led the present inventors to test other canonical target genes. 5-FU (50 μM) was added to HCT116 p53 WT cells for 24 hours. Total cell lysate was prepared and subjected into Western blot analysis and at the same time RNA was prepared and used as a template for cDNA and semi-quantitative PCR was performed. […] In particular a tight correlation between p21 and p53 protein levels (FIGS. 14A-C).

Structure (SMILES)	increase of GFP expression (p53; 50 μM)	cell toxicity (cell death) (HCT116 cells; transfected HCT116 cells) [%]	GFP expression (p53; 10 μM, compared with Quercetin)	mRNA and protein of p53 target genes (p53 target genes)	cell toxicity (HCT116 cells; even very high doses (data not shown))
O=c1c(O)c(-c2ccc(O)c(O)c2)oc2cc(O)cc(O)c12 [Quercetin]	about 10 folds	60			
O=c1[nH]cc(F)c(=O)[nH]1 [5-FU]			significantly higher expression levels of GFP	up regulation	no toxicity
